Measurements: patent publication US9549994B2, “Compositions of nicardipine and sulfoalkylated β-cyclodextrin” (EKR Therapeutics, Inc., priority 2006, dated 2017)

Columns and labels:
[1] = Phase-solubility study of nicardipine HCl and CAPTISOL as a function of pH; type: physicochemical; settings: FIG. 1
Method: in this phase-solubility study, nicardipine HCl, in amounts that exceeded its solubility, was taken into vials containing buffers in the pH range of 3.6-7.4 and containing CAPTISOL® in the concentration range of 2-40% w/v. These evaluations were also done for buffer solutions containing no CAPTISOL®. The vials were sealed and shaken at room temperature until equilibrium was reached. Subsequently, test sample aliquots were withdrawn, filtered, and drug concentration was determined by RP-HPLC with UV detection.

[2] = cited from earlier work

Structure (SMILES): COC(=O)C1=C(C)NC(C)=C(C(=O)OCCN(C)Cc2ccccc2)C1c1cccc([N+](=O)[O-])c1.Cl (racemic) [nicardipine HCl, (±)-2-(benzyl-methylamino)ethyl methyl 1,4-dihydro-2,6-dimethyl-4-(m-nitrophenyl)-3,5-pyridinedicarboxylate monohydrochloride]
- solubility as a function of CAPTISOL concentration ([1]; at a given pH value, CAPTISOL 2-40% w/v): increased
- solubility as a function of pH ([1]; buffers pH 3.6-7.4, room temperature): decreased with increased pH

Structure (SMILES): COC(=O)C1=C(C)NC(C)=C(C(=O)OCCN(C)Cc2ccccc2)C1c1cccc([N+](=O)[O-])c1 (stereo not drawn) [Nicardipine, nicardipine]
- solubility in water [2]: only slightly soluble in water
